Laboratory results taken from BindingDB's records for doi:10.1016/j.bmcl.2006.01.011 (Purdue University, 2006).

biological target: T1, Dimer of Gag-Pol polyprotein [501-599,Q508K,L534I,L564I,C568A,C596A] (Human immunodeficiency virus 1, UniProt P03367, C568A/C596A/L534I/L564I/Q508K); experiment: Protease Inhibition Assay; conditions: pH 6.4; 25 °C
T1 construct: 501-599
Description: The Ki values were determined using fluorogenic substrate, 2-(aminobenzoyl)-Thr-Ile-Nle-Phe(p-NO2)-Gln-ArgNH2. A standard curve relating changes in fluorescent intensity to changes in concentration of product was used to convert fluorescent changes into molar velocities. The amount of cleavage was determined by HPLC.

Structure (SMILES) | Ki [nM]
C=CCC1(N(CC(C)C)C[C@@H](O)[C@H](Cc2ccccc2)NC(=O)O[C@H]2CO[C@H]3OCC[C@H]32)C(=O)Nc2ccccc21 (stereo partly drawn) [(3R,3aS,6aR)-hexahydrofuro[2,3-b]furan-3-yl N-[(2S,3R)-3-hydroxy-4-[(2-methylpropyl)[2-oxo-3-(prop-2-en-1-yl)-2,3-dihydro-1H-indol-3-yl]amino]-1-phenylbutan-2-yl]carbamate] | 4.5
CC(C)CN(C[C@@H](O)[C@H](Cc1ccccc1)NC(=O)O[C@H]1CO[C@H]2OCC[C@H]21)C1(C)C(=O)Nc2ccccc21 (stereo partly drawn) [(3R,3aS,6aR)-hexahydrofuro[2,3-b]furan-3-yl N-[(2S,3R)-3-hydroxy-4-[(3-methyl-2-oxo-2,3-dihydro-1H-indol-3-yl)(2-methylpropyl)amino]-1-phenylbutan-2-yl]carbamate] | 4.5
COc1ccc2c(c1)C(C)(N(CC(C)C)C[C@@H](O)[C@H](Cc1ccccc1)NC(=O)O[C@H]1CO[C@H]3OCC[C@H]31)C(=O)N2 (stereo partly drawn) [(3R,3aS,6aR)-hexahydrofuro[2,3-b]furan-3-yl N-[(2S,3R)-3-hydroxy-4-[(5-methoxy-3-methyl-2-oxo-2,3-dihydro-1H-indol-3-yl)(2-methylpropyl)amino]-1-phenylbutan-2-yl]carbamate] | 116
CC(C)CN(C[C@@H](O)[C@H](Cc1ccccc1)NC(=O)O[C@H]1CO[C@H]2OCC[C@H]21)C1(C)C(=O)N(C)c2ccccc21 (stereo partly drawn) [(3R,3aS,6aR)-hexahydrofuro[2,3-b]furan-3-yl N-[(2S,3R)-4-[(1,3-dimethyl-2-oxo-2,3-dihydro-1H-indol-3-yl)(2-methylpropyl)amino]-3-hydroxy-1-phenylbutan-2-yl]carbamate] | 51
O=C(N[C@@H](Cc1ccccc1)[C@H](O)CN1CC=CCCC12C(=O)Nc1ccccc12)O[C@H]1CO[C@H]2OCC[C@H]21 (stereo partly drawn) [(3R,3aS,6aR)-hexahydrofuro[2,3-b]furan-3-yl N-[(2S,3R)-4-{1',2',1,3,4,7-hexahydrospiro[azepine-2,3'-indole]-2'-one}-3-hydroxy-1-phenylbutan-2-yl]carbamate] | > 1000
O=C(N[C@@H](Cc1ccccc1)[C@H](O)CN1CCCCCC12C(=O)Nc1ccccc12)O[C@H]1CO[C@H]2OCC[C@H]21 (stereo partly drawn) [(3R,3aS,6aR)-hexahydrofuro[2,3-b]furan-3-yl N-[(2S,3R)-4-{1',2'-dihydrospiro[azepane-2,3'-indole]-2'-one}-3-hydroxy-1-phenylbutan-2-yl]carbamate] | > 1000
O=C(N[C@@H](Cc1ccccc1)[C@H](O)CN1CCCCC12C(=O)Nc1ccccc12)O[C@H]1CO[C@H]2OCC[C@H]21 (stereo partly drawn) [(3R,3aS,6aR)-hexahydrofuro[2,3-b]furan-3-yl N-[(2S,3R)-4-{1,2-dihydrospiro[indole-3,2'-piperidine]-2-one}-3-hydroxy-1-phenylbutan-2-yl]carbamate] | > 1000
